Results taken from US9676771B2, “Compounds for inhibiting drug-resistant strains of HIV-1 integrase” (priority 2013, dated 2017).
Like-named read-outs stand apart in the source and are kept apart here.

Legend:
in vitro = type: cell-based, human; conditions: human, 50% reduction in the level of ATP in HOS cells
Method: Cellular Cytotoxicity Assay.
On the day of the screen, cells were treated with compounds at the appropriate concentration range chosen and incubated at 37° C. for 48 hrs. Cytotoxicity was measured by monitoring ATP levels via a luciferase reporter assay. Cells were lysed in 50 μL cell lysis buffer (PerkinElmer, Waltham, Mass.) and shaken at 700 rpm at room temperature for 5 mins After the addition of 50 μL of ATPlite buffer (PerkinElmer) directly onto the lysed cells and shaking at 700 rpm at room temperature for 5 mins, ATP levels were monitored by measuring luciferase activity using a microplate reader. Activity was normalized to cytotoxicity in the absence of target compounds. KaleidaGraph (Synergy Software, Reading, Pa.) was used to perform regression analysis on the data. CC50 values were determined from the fit model.

HIV-1 integrase = HIV-1 integrase (Human immunodeficiency virus type 1 group M subtype B, UniProt P12497); assay: biochemical; type: biochemical
Method: In Vitro Integrase Assay.
Integrase reactions were carried out by adding drugs or an equivalent volume of 100% dimethyl sulfoxide (DMSO; used as the drug solvent) to a mixture of 20 nM DNA and 400 nM integrase in 50 mM morpholinepropanesulfonic acid (pH 7.2), 7.5 mM MgCl2, and 14 mM 2-mercaptoethanol. Reactions were performed at 37° C. for 2 h and quenched by the addition of an equal volume of loading buffer (formamide containing 1% sodium dodecyl sulfate, 0.25% bromophenol blue, and xylene cyanol). […] Dried gels were visualized using a Typhoon 8600 (GE Healthcare, Piscataway, N.J.). Densitometric analyses were performed using ImageQuant 5.1 software from GE Healthcare.

[1] = tested on: HIV-1 constructs containing wild-type IN; assay: microbe, parasite or virus in culture; type: cell-based; conditions: for EC50: Human immunodeficiency virus 1, WT IN, read-out: EC50 (nM, WT)
From the text: (§1) Single-Round HIV-1 Infectivity Assay.
(§2) Human embryonyl kidney cell culture cell line 293 was acquired from the American type Culture Collection (ATCC).
(§3) The virus-containing supernatants were then harvested, clarified by low-speed centrifugation, filtrated, and diluted for preparation in infection assays. […] Activity was normalized to infectivity in the absence of target compounds. KaleidaGraph (Synergy Software, Reading, Pa.) was used to perform regression analysis on the data. EC50 values were determined from the fit model.

[2] = tested on: HIV-1 constructs containing mutant IN N155H; assay: microbe, parasite or virus in culture; type: cell-based; conditions: Human immunodeficiency virus 1; Table 3; read-out: EC50 (nM, IN Mutants) N155H
From the text: as §1, §2, §3
(§4) pNLNgoMIVR^−ΔEnv.LUC has been described previously (Zhao et al. 2008). The integrase codon reading frame was removed from pNLNgoMIVR^−ΔEnv LUC (between KpnI and SalI sites) and placed between the KpnI and SalI sites of pBluescript II KS+. Using that construct as the wild-type template, we prepared the following HIV-1 Integrase-resistant mutants via the QuikChange II XL (Stratagene, La Jolla, Calif.) site-directed mutagenesis protocol: H51Y, T66I, E92Q, G118R, Y143R, Q148H, Q148K, N155H, R263K, G140S+Q148H, G140A+Q148K, E138K+Q148K, and H51Y+R263K. The following sense with cognate antisense (not shown) oligonucleotides (Integrated DNA Technologies, Coralville, Iowa) were used in the mutagenesis: H51Y, 5′-[…]-3; T66I, 5′-[…]-3′; E92Q, 5′-[…]-3′; G118R, 5′-[…]-3′; E138K, 5′-[…]-3; G140A, 5′-[…]-3; G140S, 5′-[…]-3′; Y143R, 5′-[…]-3′; Q148H, 5′-[…]-3′; Q148K, 5′-[…]-3; N155H, 5′-[…]-3′; R263K 5′-[…]-3′. The double mutation G140S+Q148H was constructed by using the previously generated Q148H mutant and the appropriate oligonucleotide for the 2nd mutation, G140S. The double mutation G140A+Q148K was made by using the Q148K mutant and the appropriate oligonucleotide for the 2nd mutation, G140A. The double mutation E138K+Q148K was made by using the Q148K mutant and the appropriate oligonucleotide for the 2nd mutation, E138K. The double mutation H51Y+R263K was constructed by using the previously generated H51Y mutant and the appropriate oligonucleotides for the 2nd mutation, R263K. The DNA sequence of each construct was verified independently by DNA sequence determination. […] These DNA sequences were additionally checked independently by DNA sequence determination.

[3] = tested on: HIV-1 constructs containing mutant IN Y143R; assay: microbe, parasite or virus in culture; type: cell-based; conditions: Human immunodeficiency virus 1, read-out: EC50 (nM, IN Mutants) Y143R
From the text: as §1, §2, §3, §4

[4] = read-out: IC50 (3^+-Processing)
[5] = read-out: IC50 (Strand Transfer)
[6] = Table 4, 3′-processing, read-out: IC50 (3^+-Processing)
[7] = Table 4, strand transfer, read-out: IC50 (Strand Transfer)

Row | SMILES | CC50 (in vitro; Table 3) | EC50 ([1]; Table 3) | IC50 (HIV-1 integrase; [4]) | IC50 (HIV-1 integrase; [5]) | IC50 (HIV-1 integrase; [6]) | IC50 (HIV-1 integrase; [7]) | other results
1 | COC(=O)[C@@H](Nc1c(C(=O)NCc2ccc(F)cc2F)c(=O)n(O)c2ncccc12)c1ccccc1 [XZ396, (S)-methyl 2-((3-((2,4-difluorobenzyl)carbamoyl)-1-hydroxy-2-oxo-1,2-dihydro-1,8-naphthyridin-4-yl)amino)-2-phenylacetate] | > 250000 nM | – | – | – | – | – | –
2 | O=C(NCc1ccc(F)c(F)c1)c1cc2cccnc2n(O)c1=O [XZ392, N-(3,4-difluorobenzyl)-1-hydroxy-2-oxo-1,2-dihydro-1,8-naphthyridine-3-carboxamide] | > 250000 nM | 61.6 ± 13.8 nM | – | – | – | – | IC50 (HIV-1 integrase; Table 1, 3′-processing, read-out: IC50 Values 3′-Processing): 13600 ± 1800 nM; IC50 (HIV-1 integrase; Table 1, strand transfer, read-out: IC50 Values Strand transfer): 17 ± 3 nM; Si (selectivity index) [1]: >4,058; EC50 [2]: 2200 ± 61 nM; EC50 ([3]; Table 3): 39.7 ± 12.5 nM
3 | COC(=O)[C@H](CO)Nc1c(C(=O)NCc2ccc(F)cc2F)c(=O)n(O)c2ncccc12 [XZ398, (S)-methyl 2-((3-((2,4-difluorobenzyl)carbamoyl)-1-hydroxy-2-oxo-1,2-dihydro-1,8-naphthyridin-4-yl)amino)-3-hydroxypropanoate] | > 250000 nM | 9.7 ± 3 nM | 5800 ± 500 nM | 8.4 ± 3.2 nM | – | – | –
4 | CC(C)Nc1c(C(=O)NCc2ccc(F)cc2F)c(=O)n(O)c2ncccc12 [XZ381, N-(2,4-difluorobenzyl)-1-hydroxy-4-(isopropylamino)-2-oxo-1,2-dihydro-1,8-naphthyridine-3-carboxamide] | > 250000 nM | 7.2 ± 3 nM | 1800 ± 200 nM | 16 ± 4 nM | – | – | –
5 | CCCCCNc1c(C(=O)NCc2ccc(F)cc2F)c(=O)n(O)c2ncccc12 [XZ380, N-(2,4-difluorobenzyl)-1-hydroxy-2-oxo-4-(pentylamino)-1,2-dihydro-1,8-naphthyridine-3-carboxamide] | 94200 ± 24400 nM | 7.4 ± 1.4 nM | 8200 ± 1600 nM | 24 ± 9 nM | – | – | –
6 | COC(=O)[C@H](C)Nc1c(C(=O)NCc2ccc(F)cc2F)c(=O)n(O)c2ncccc12 [XZ394, (S)-methyl 2-((3-((2,4-difluorobenzyl)carbamoyl)-1-hydroxy-2-oxo-1,2-dihydro-1,8-naphthyridin-4-yl)amino)propanoat] | > 250000 nM | 4.2 ± 1.6 nM | – | – | – | – | –
7 | COC(=O)[C@@H](CO)Nc1c(C(=O)NCc2ccc(F)cc2F)c(=O)n(O)c2ncccc12 [XZ399, (R)-methyl 2-((3-((2,4-difluorobenzyl)carbamoyl)-1-hydroxy-2-oxo-1,2-dihydro-1,8-naphthyridin-4-yl)amino)-3-hydroxypropanoate] | > 250000 nM | 14.2 ± 3.71 nM | 4400 ± 500 nM | 13 nM | – | – | –
8 | NCc1ccc(-c2ccc(Nc3c(C(=O)NCc4ccc(F)cc4F)c(=O)n(O)c4ncccc34)cc2)cc1 [XZ389, 4-((4′-(aminomethyl)-[1,1′-biphenyl]-4-yl)amino)-N-(2,4-difluorobenzyl)-1-hydroxy-2-oxo-1,2-dihydro-1,8-naphthyridine-3-carboxamide] | 414 nM | 411 ± 30 nM | – | – | > 333000 nM | 29000 ± 13000 nM | –
9 | NCCNc1c(C(=O)NCc2ccc(F)cc2F)c(=O)n(O)c2ncccc12 [XZ403, 4-((2-aminoethyl)amino)-N-(2,4-difluorobenzyl)-1-hydroxy-2-oxo-1,2-dihydro-1,8-naphthyridine-3-carboxamide] | 9600 ± 3700 nM | 34.7 ± 10.5 nM | 4500 ± 200 nM | 39 ± 6 nM | – | – | –
10 | N#Cc1ccc(-c2ccc(Nc3c(C(=O)NCc4ccc(F)cc4F)c(=O)n(O)c4ncccc34)cc2)cc1 [XZ388, 4-((4′-cyano-[1,1′-biphenyl]-4-yl)amino)-N-(2,4-difluorobenzyl)-1-hydroxy-2-oxo-1,2-dihydro-1,8-naphthyridine-3-carboxamide] | > 250000 nM | 123 ± 20.7 nM | – | – | 70000 ± 7000 nM | 130 ± 30 nM | Si (selectivity index) ([1]; Table 3, ratio of CC50 to EC50): >2,033; EC50 ([3]; Table 3): 346 ± 38.3 nM
11 | O=C(NCc1ccc(F)cc1F)c1c(NCCc2ccccc2)c2cccnc2n(O)c1=O [XZ382, N-(2,4-difluorobenzyl)-1-hydroxy-2-oxo-4-(phenethylamino)-1,2-dihydro-1,8-naphthyridine-3-carboxamide] | > 250000 nM | 14.1 ± 7.9 nM | 8000 ± 1500 nM | 50 ± 12 nM | – | – | –
12 | O=C(NCc1ccc(F)cc1F)c1c(Nc2ccc(-c3ccccc3)cc2)c2cccnc2n(O)c1=O [XZ385, 4-([1,1′-biphenyl]-4-ylamino)-N-(2,4-difluorobenzyl)-1-hydroxy-2-oxo-1,2-dihydro-1,8-naphthyridine-3-carboxamide] | > 250000 nM | 372 ± 63 nM | – | – | 52000 ± 5000 nM | 340 ± 80 nM | Si (selectivity index) ([1]; Table 3, ratio of CC50 to EC50): >673; EC50 ([3]; Table 3): 361 ± 84 nM
13 | COC(=O)[C@H](Nc1c(C(=O)NCc2ccc(F)cc2F)c(=O)n(O)c2ncccc12)c1ccccc1 [XZ397, (R)-methyl 2-((3-((2,4-difluorobenzyl)carbamoyl)-1-hydroxy-2-oxo-1,2-dihydro-1,8-naphthyridin-4-yl)amino)-2-phenylacetate] | > 250000 nM | 7.4 ± 3.3 nM | – | – | – | – | EC50 [2]: 21.6 ± 3.7 nM
14 | COc1ccc2c(O)c(C(=O)NCc3ccc(F)cc3F)c(=O)n(O)c2n1 [XZ405, N-(2,4-difluorobenzyl)-1,4-dihydroxy-7-methoxy-2-oxo-1,2-dihydro-1,8-naphthyridine-3-carboxamide] | – | – | – | – | 32000 ± 4000 nM | 33 ± 5 nM | CC50 (in vitro; Table 5): 12100 ± 4600 nM; EC50 ([1]; Table 5): 186 ± 23.2 nM; SI ([1]; Table 5, ratio of CC50 to EC50): 65; EC50 ([3]; Table 5): 215 ± 31 nM
15 | O=C(NCc1ccc(F)cc1F)c1c(Nc2ccc3c(c2)Cc2ccccc2-3)c2cccnc2n(O)c1=O [XZ386, 4-((9H-fluoren-2-yl)amino)-N-(2,4-difluorobenzyl)-1-hydroxy-2-oxo-1,2-dihydro-1,8-naphthyridine-3-carboxamide] | > 250000 nM | 171 ± 56.8 nM | – | – | 46000 ± 8000 nM | 840 ± 210 nM | Si (selectivity index) ([1]; Table 3, ratio of CC50 to EC50): >1,462; EC50 ([3]; Table 3): 448 ± 28.1 nM
16 | CCOC(=O)[C@@H]1CCCN1c1c(C(=O)NCc2ccc(F)cc2F)c(=O)n(O)c2ncccc12 [XZ404, (S)-ethyl 1-(3-((2,4-difluorobenzyl)carbamoyl)-1-hydroxy-2-oxo-1,2-dihydro-1,8-naphthyridin-4-yl)pyrrolidine-2-carboxylate] | 18200 ± 7100 nM | 590 ± 71.8 nM | – | – | 86000 ± 6000 nM | 310 ± 40 nM | Si (selectivity index) ([1]; Table 3, ratio of CC50 to EC50): 31; EC50 ([3]; Table 3): 1660 ± 920 nM
17 | CNc1c(C(=O)NCc2ccc(F)cc2F)c(=O)n(O)c2ncccc12 [XZ371, N-(2,4-difluorobenzyl)-1-hydroxy-4-(methylamino)-2-oxo-1,2-dihydro-1,8-naphthyridine-3-carboxamide] | > 250000 nM | 3.1 ± 0.6 nM | 3700 ± 400 nM | 27 ± 4 nM | – | – | –
